± gives the standard deviation of the reports.
| SMILES | glass transition temperature [°C] |
| --- | --- |
| *CC(*)c1ccc([Si](O[Si](C)(C)C)(O[Si](C)(C)C)O[Si](C)(C)C)cc1 (repeat unit) | 114.00 |
| *CC(*)(C)C(=O)OCCOc1ccc(/N=N/c2ccc(C#N)cc2)cc1 (repeat unit) | 109.00 |
| *Oc1ccc(OC(=O)c2cc(OCCCc3ccccc3)c(C(*)=O)cc2OCCCc2ccccc2)cc1C (repeat unit) | 91.00 |
| *CCCCCCCCCCCC(c1ccc(O)cc1)C(*)c1ccc(O)cc1C (repeat unit) | 4.00 |
| *c1ccc(OCCN(CCOc2ccc(-c3cc(-c4ccccc4)c4cc(Oc5ccc6nc(*)cc(-c7ccccc7)c6c5)ccc4n3)cc2)c2ccc(C(C#N)=C(C#N)C#N)cc2)cc1 (repeat unit) | 175.00 |
| *CCCCOC(=O)OCCCCCCOC(=O)OCCCCn1c(=O)c2cc3c(=O)n(*)c(=O)c3cc2c1=O (repeat unit) | 37.00 |
| *Oc1ccc(OC(=O)c2ccc(C(*)=O)cc2Oc2ccc(Cl)cc2)cc1 (repeat unit) | 107.00 |
| *c1ccc(N2C(=O)c3ccc(C(=O)c4ccc5c(c4)C(=O)N(c4ccc(-c6nc7cc(Oc8ccc9nc(-c%10ccccc%10)c(*)nc9c8)ccc7nc6-c6ccccc6)cc4)C5=O)cc3C2=O)cc1 (repeat unit) | 254.00 |
| *CCCCCCOc1ccc(-c2cc(-c3ccc(-c4ccccc4)cc3)c(-c3ccc(NC(=O)c4ccc(C(=O)Nc5ccc(-c6c(-c7ccc(-c8ccccc8)cc7)cc(-c7ccc(O*)cc7)cc6-c6ccc(-c7ccccc7)cc6)cc5)cc4)cc3)c(-c3ccc(-c4ccccc4)cc3)c2)cc1 (repeat unit) | 121.50 |
| *c1ccc(Oc2ccc(NC(=O)c3cc(NC(=O)c4ccc(OC(C)=O)cc4)cc(C(=O)Nc4ccc(Oc5ccc(-c6nnc(*)o6)cc5)cc4)c3)cc2)cc1 (repeat unit) | 270.00 |
| *CC1CCC(COP(=O)(/N=N/c2ccc(-c3ccc(/N=N/P(=O)(O*)OC)cc3)cc2)OC)CC1 (repeat unit) | 58.00 |
| */C(=C/c1cc(OC)c(/C=C(/c2ccc(*)cc2)c2ccc(F)cc2)cc1OC)c1ccc(F)cc1 (repeat unit) | 193.00 |
| *CCCCOC(=O)CCCCC(=O)OCCCCOC(=O)c1ccc(C(=O)O*)cc1 (repeat unit) | -20.00 |
| *CC(*)c1ccccc1C(=O)OCCCCC (repeat unit) | 92.00 |
| *c1ccc(-c2ccc(-c3ccc(-n4c(=O)c5cc6c(=O)n(*)c(=O)c6c(C(F)(F)F)c5c4=O)cc3)cc2)cc1 (repeat unit) | 364.00 |
| *Oc1ccc(C(c2ccc(OC(*)=O)cc2)C(C)C)cc1 (repeat unit) [Poly[1,1-(2-methyl propane) bis(4-phenyl)carbonate]] | 149 ± 0.6 |
| *c1ccc(Oc2ccc(C3(c4ccc(Oc5ccc(N6C(=O)c7ccc(Oc8ccccc8Oc8ccc9c(c8)C(=O)N(*)C9=O)cc7C6=O)cc5C(F)(F)F)cc4)c4ccccc4-c4ccccc43)cc2)c(C(F)(F)F)c1 (repeat unit) | 241.00 |
| *c1ccc2c(c1)C(=O)N(C1CCC(N3C(=O)c4ccc(C(*)(C(F)(F)F)C(F)(F)F)cc4C3=O)CC1)C2=O (repeat unit) | 346.50 |
| *O[Si](*)(C)CCCC(=O)OCC (repeat unit) | -82.00 |
| *Oc1ccc(C2(c3ccc(OC(=O)c4ccc(C(*)=O)cc4)cc3)CCC3CCCCC3C2)cc1 (repeat unit) | 275.00 |
| *O[Si](C)(C)CC[Si](C)(C)Oc1c(C)cc(-c2cc(C)c(*)c(C)c2)cc1C (repeat unit) | 55.00 |
| *CCCCCOc1ccc(NC(=O)c2cccc(C(=O)Nc3ccc(O*)cc3)c2)cc1 (repeat unit) | 155.00 |
| *Oc1ccc(C(C)(C)c2ccc(OC(*)=O)c(Cl)c2)cc1C (repeat unit) | 138.00 |

From the PolyMetriX glass transition set
